Data published in paper PMC7525093, “Bis-Quinolinium Cyclophane Blockers of SK Potassium Channels Are Antagonists of M3 Muscarinic Acetylcholine Receptors” (Frontiers in Pharmacology, 2020).
Structures can show the parent of a compound that is named as a salt. Where two headings read alike, the source gives them in different places. Each block holds one molecule with its values, some of them ahead of it. Ends that are not written are not given here.

Legend:
[1] = target: T1, human M3 muscarinic acetylcholine receptor (Homo sapiens, UniProt P20309); assay: R-CEPIAer ER calcium assay of Gq-coupled receptor activation, M3-transfected CHO-K1 cells; assay type: cell-based; settings: for Hill slope of inhibition curve, M3 receptor: Hill equation fit
T1 construct: host or cells: CHO-K1 cells, stably transfected
T1 sequence (P20309 whole entry): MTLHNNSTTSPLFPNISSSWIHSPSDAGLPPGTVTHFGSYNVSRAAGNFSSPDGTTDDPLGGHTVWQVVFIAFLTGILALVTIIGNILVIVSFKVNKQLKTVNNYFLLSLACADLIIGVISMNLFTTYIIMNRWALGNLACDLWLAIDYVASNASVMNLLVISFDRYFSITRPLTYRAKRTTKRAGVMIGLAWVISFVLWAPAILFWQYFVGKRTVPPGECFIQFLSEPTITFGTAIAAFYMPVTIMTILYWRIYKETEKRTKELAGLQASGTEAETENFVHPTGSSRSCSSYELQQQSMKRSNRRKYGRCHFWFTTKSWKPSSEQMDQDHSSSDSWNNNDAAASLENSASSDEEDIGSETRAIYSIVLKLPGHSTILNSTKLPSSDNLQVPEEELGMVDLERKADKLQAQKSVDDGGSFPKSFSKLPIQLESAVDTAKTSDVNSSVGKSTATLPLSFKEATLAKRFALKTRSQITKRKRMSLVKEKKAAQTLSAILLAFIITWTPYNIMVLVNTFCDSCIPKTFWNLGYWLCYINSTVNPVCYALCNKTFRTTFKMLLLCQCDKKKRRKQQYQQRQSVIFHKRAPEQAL
Description: The binding of antagonists to Gq-coupled receptors was determined by measuring IP3-mediated calcium depletion from the endoplasmic reticulum (ER). This was accomplished using CHO-K1 cells stably transfected with human M3 muscarinic acetylcholine receptor (CEM3000000, cDNA Resource Center, Bloomsburg University) and R-CEPIAer, a low affinity ER-targeted calcium indicator fluorescent protein ([Suzuki et al., 2014]). R-CEPIAer reporting of ER calcium concentration was assessed using 564 nm excitation light (>590 long-pass emission) at 20 second intervals on a Nikon swept-field confocal microscope using slit-scan mode, 2x2 Binning, and 100 millisecond frames. F/Fmax was fluorescence intensity normalized to maximal fluorescence intensity during the experiment. The response of cells to Gq-coupled receptor agonist were measured as the change in F/Fmax (ΔF/Fmax) from preagonist value to fluorescence minimum during agonist application (that occurs by IP3-mediated ER calcium depletion). […] Perfusion of each agonist application was for 2 min, while the antagonist overlapped and preceded the second agonist application by 3 min. […] IC50 was calculated by assaying fractional inhibition using a dose-response of antagonist concentrations (i.e. Figure 1D ). For assays of other receptors such as the M1 and M5 muscarinic receptors, H1 histamine and P2Y1 purinergic receptors, these receptors were transiently co-transfected with the pCMV R-CEPIAer plasmid (a gift from Masamitsu Iino (Addgene plasmid # 58216; http://n2t.net/addgene:58216; RRID : Addgene_58216)) into CHO cells using polyethylenimine [according to previous methods ([Longo et al., 2013])]. IC50 and EC50 values were estimated by fitting the dose-response relationship to a Hill equation.
To obtain a pKB using a Schild analysis ([Arunlakshana and Schild, 1959]), the acetylcholine EC50 was measured in the absence of UCL1684 and EC50′ measured in the presence of increasing concentrations of UCL1684. These values were used to calculate a dose ratio (DR = EC50′/EC50) for each UCL1684 concentration. The log(DR − 1) was plotted vs. log UCL1684 concentrations and fit to a linear equation where the theoretical X-intercept was used to estimate a pKB.

[2] = tested on: mouse trachea; assay: Isometric tracheal tension measurement (organ bath); settings: for IC50: cumulative concentrations, Hill function, read-out: IC50, relaxation of carbachol-precontracted trachea; for Relaxation response of trachea: TrpM channel blocker
Description: Mice used in these studies were BALB/C mice from Jackson Labs. All animal procedures were reviewed and approved by the University of Texas Health Science Center at San Antonio Institutional Animal Care and Use Committee. For tracheal constriction studies, animals were deeply anesthetized with isoflurane and then sacrificed by cervical dislocation. Isometric tracheal contraction measurements were performed as previously described ([Semenov et al., 2012]). Trachea were removed and surrounding tissues dissected in ice-cold physiologic saline solution (PSS) consisting of 119 mM NaCl, 4.7 mM KCl, 2.0 mM CaCl2, 1.0 mM KH2PO4, 1.17 mM MgSO4, 18 mM NaHCO3, 0.026 mM EDTA, 11 mM glucose, and 12.5 mM sucrose. Trachea were cut below the pharynx and above the primary bronchus bifurcation. Two metal wires, attached to a force transducer and micrometer (Radnoti, LLC), were threaded into the lumen of the trachea. Trachea were placed into an oxygenated organ bath (95% O2, 5% CO2), at 37°C, pH 7.35 (after bubbling with 95% O2–5% CO2). Tracheal resting tension was readjusted to 1 gram over 1 h and then challenged with 67 mM potassium PSS with NaCl adjusted to 56.7 mM to maintain proper osmolarity (KPS). Trachea were challenged two or more times until reproducible contractile responses were achieved. All subsequent experimental drug responses were normalized to the KPS response. Bladder measurements were conducted in a similar manner as trachea with identical solutions. The bladder was excised and formed into a ring by cutting anterior and posterior portions before mounting on metal wires for force measurements. For the aorta preparation, the ascending thoracic aorta was excised and cut into 2–3 mm sections before mounting on wires for force measurements.

[3] = tested on: SK potassium channels; settings: cited from earlier work
[4] = tested on: CNG1; parameters: method as in Rosenbaum et al., 2004; settings: ref Rosenbaum et al., 2004; read-out: IC50, block of CNG1 channels; cited from earlier work
[5] = tested on: CNG2; parameters: method as in Rosenbaum et al., 2004; settings: ref Rosenbaum et al., 2004; read-out: IC50, block of CNG2 channels; cited from earlier work
[6] = tested on: mouse; parameters: method as in Gamboa-Vujicic et al., 1993; settings: ref Gamboa-Vujicic et al., 1993, cited from earlier work
[7] = 5 μM antagonist, 0.5 μM carbachol, 0 = none, 1 = complete inhibition

IC50 [1]: 83000 nM | Hill slope of inhibition curve, M3 receptor ([1]; 0.5 μM carbachol): 1.7 ± 0.35 | Effect on M3 carbachol response ([1]; 10 μM antagonist, 0.5 μM carbachol): undetectable | Fractional inhibition of second carbachol response ([1]; 100 μM antagonist, 0.5 μM carbachol): 0.60 ± 0.03 | IC50 ([2]; 0.5 μM carbachol): 31500 ± 2000 nM | IC50 ([2]; Mus musculus, 0.5 μM carbachol): 31000 nM
Molecule: Cl.c1ccc2c(c1)CCC[C@H]2Nc1nc2ccccc2[nH]1 [NS8593, N-[(1R)-1,2,3,4-Tetrahydro-1-naphthalenyl]-1H-benzimidazol-2-amine hydrochloride]
Relaxation of precontracted trachea ([2]; 76.8 μM (highest concentration), 0.5 μM carbachol): complete relaxation

Molecule: c1ccc2c(c1)c1cc[n+]2CCCCC[n+]2ccc(c3ccccc32)NCCCCCN1 [UCL 1848, 8,14-Diaza-1,7(1,4)-diquinolinacyclotetradecaphane trifluoroacetate salt]
IC50 [1]: 1000 nM | Hill slope of inhibition curve, M3 receptor ([1]; 0.5 μM carbachol): 1.47 ± 0.46 | Fractional inhibition of second carbachol response [1, 7]: 0.98 ± 0.01 | IC50 ([3]; effects on SK-dependent fast-afterhyperpolarizing currents, ref Campos Rosa et al., 1996, Chen et al., 2000, Blank et al., 2004, read-out: IC50, SK potassium channels): 2 nM | IC50 ([3]; ref Chen et al., 2000, read-out: IC50, block of SK channels): 2.7 nM

Molecule: CCCCCCCCCCCCC/C=C/[C@@H](O)[C@@H](N)CO [d-erthyro-sphingosine]
Relaxation response of trachea ([2]; 8.1 μM): 14.9 ± 6.0

IC50 [1]: 270 nM | Hill slope of inhibition curve, M3 receptor ([1]; 0.5 μM carbachol): 0.90 ± 0.29 | Fractional inhibition of second carbachol response [1, 7]: 0.99 ± 0.003
Molecule: Cc1cc(=N)c2ccccc2n1CCCCCCCCCCn1c(C)cc(=N)c2ccccc21.Cl.Cl [dequalinium chloride, 1-[10-(4-imino-2-methyl-1,4-dihydroquinolin-1-yl)decyl]-2-methyl-1,4-dihydroquinolin-4-imine dihydrochloride]
IC50 ([3]; ref Castle et al., 1993, Dunn, 1994, read-out: IC50, block of SK potassium channels): 1500 nM | IC50 [4]: 190 nM | IC50 [5]: 2400 nM

Molecule: Cc1cc(N)c2ccccc2[n+]1CCCCCCCCCC[n+]1c(C)cc(N)c2ccccc21.[Cl-].[Cl-] [dequalinium chloride, 1-[10-(4-imino-2-methyl-1,4-dihydroquinolin-1-yl)decyl]-2-methyl-1,4-dihydroquinolin-4-imine dihydrochloride]
LD50 ([6]; intraperitoneal administration): 18.3 mg/kg | LD50 ([6]; oral administration): 300 mg/kg

Molecule: CC(Cc1ccc(O)c(O)c1)C(C)Cc1ccc(O)c(O)c1 (stereo not drawn) [nordihydroguaiaretic acid]
Relaxation response of trachea ([2]; 25 μM): 12.4 ± 8.5

Molecule: Apamin: peptide blocker of SK channels (CNCKAPETALCARRCQQH; not fully specified (C-terminus, bridges); cysteine pairing not given here; UniProt P01500 28-45, looked up)
Relaxation of ASM contractions ([2]; 100 nM, 0.5 μM carbachol): did not relax ASM contractions | Relaxation response of trachea, single dose ([2]; 100 nM, 0.5 μM carbachol): −15 ± 7
